From patent US11413278B2, “Compounds and methods for promoting stress resistance” (priority 2015, dated 2022)
Where two headings read alike, the source gives them in different places.

Assays:
[1] = system: WI-38 cells; assay: CdCl2 (cadmium) resistance assay; assay type: cell-based, human; conditions: for fold induction at 10 µM: Homo sapiens, 12 h, normalized ATP measurement; for Assay 4: H2O2- & Cd-resistant / Assay 2: Cadmium-resistant: YES/NO; for Assay 2: Cadmium-resistant: * indicates partial
Method in brief: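 WI-38 cells were given compounds at five final concentrations (0.25–20 μM) in triplicate, followed by cadmium or MMS for 12 h. For MMS, medium was switched from OptiMEM+10% FBS to serum-free DMEM+2% BSA when compounds were added, 24 h before stressor. Two independent assays were run, analysed by global variance t-test.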

[2] = system: FOXO3; assay: FOXO3 siRNA knockdown: dependency for H2O2-resistance; assay type: cell-based, human
Experimental: For qPCR analysis, WI-38 cells were treated with small molecules (at 10 μM) (biological quadruplicates) for 24 hrs and processed for RNA isolation and reverse transcription (RT) with the Cells-to-Ct Kit (Life Technologies), following manufacturer's instructions. RT products were diluted with H2O and used for qPCR analysis on an ABI 7300 system (Life Technologies) (technical triplicates). Relative expression levels of target genes were normalized to the genes B2M, PPIA and GAPDH. To knock down the expression of FOXO3 or NRF2, WI-38 cells were transfected, using the RNAiMAX reagents (Life Technologies), with siRNA oligos (at 10 nM final concentration, 10 ml culture medium) for FOXO3 (Life Technologies) or NRF2 (Integrated DNA Technologies) on 10-cm petri dishes for 36 hrs, and then detached and aliquoted onto 96-well (for qPCR analysis) or 384-well plates (for H2O2-stress treatment). ˜24 hrs later, small molecules were introduced and incubated with cells for 24 hrs. Cells were then either processed with the Cells-to-Ct Kit to prepare RT products for qPCR analysis or subjected to H2O2 (700 μM) for 3 hrs and assayed for viability. The knockdown efficiency of FOXO3 or NRF2 was checked at 36 hrs post-transfection and at the end as well. […]
Applicants used siRNA to knock down FOXO3 expression by ˜70% in an attempt to identify whether the activation of these genes depends on activity of FOXO3 and/or NRF2. […] We used siRNA to knock down FOXO3 expression by ˜60% to 70% (FIG. 3; see data in Table 6). […] (Given the caveat that FOXO3 was not fully knocked down, partial dependency was scored when the H2O2-resistance capacity was reduced by at least 25% but less than 50% upon siRNA knockdown). At least for Gr-7A and Gr-7C, which are structurally related, the observed FOXO3-dependency for H2O2-resistance is consistent with their strong effects to induce FOXO3 target genes (Tables 1a-1f, Table 6, & Table 15), including SOD2 and GADD45A.

[3] = system: C. elegans; assay: C. elegans lifespan assays (liquid and plate); assay type: in vivo, Caenorhabditis elegans; conditions: for ILS at 60 µM / ILS at 66 µM: Caenorhabditis elegans; for O = Life span- extending scores in worms: score scale 0 to 2, 4 to 6 independent trials; for M = Lifespan-extending scores in worms: summary score; for Extension of C. elegans' lifespan (qualitative): in at least 3 to 4 trials, group range ~10% to ~50%
[4] = system: WI-38 cells; conditions: for PI cell-death imaging without H2O2 (indicating potential toxicity): Assay 8(k), without H2O2, at 10 uM; for Percentage of propidium iodide-positive (dead) cells under normal conditions (qualitative) / PI-positive dead cells under normal conditions: WI-38, no H2O2; for PI-positive dead cells under normal conditions: control 0.4±0.2%; for Percentage of propidium iodide-positive dead cells (no H2O2 stress treatment), at 10 uM: negative control 0.41% ± 0.23%
Experimental: WI-38 cells were seeded on 384-well plates for 24 hrs and then incubated with small molecules for 24 hrs. […] Images were collected on an INCell Analyzer 2000 (GE) and analyzed with the Developer software.

[5] = Exp. 1, WI-38 cells, read-out: Exp. 1, under Cd2Cl2 stress treatment, at 10 uM (fold change)
[6] = Exp. 2, WI-38 cells, read-out: Exp. 2, under Cd2Cl2 stress treatment, at 10 uM (fold change)
[7] = WI-38 cells, 10 μM, both stressors
[8] = score in summary of 38 core set hits
[9] = in liquid, wild type, with FuDR, 1.0 × 10^9 bacteria/ml, read-out: relative change of mean lifespan vs control, Trial 1
[10] = in liquid, wild type, with FuDR, 2.5 × 10^9 bacteria/ml, read-out: relative change of mean lifespan vs control, Trial 2
[11] = on plate, CF512 temperature-sensitive sterile animals, without FuDR, 2.0 × 10^10 bacteria/ml, read-out: relative change of mean lifespan vs control, Trial 3
[12] = Assay 2(z), 1.0 × 10^9 bacteria/ml, wild type + FuDR (2012 July), read-out: Lifespan assay in liquid
[13] = Assay 3(aa), 2.5 × 10^9 bacteria/ml, wild type + FuDR, read-out: Lifespan assay in liquid
[14] = Assay 4(ab), 2.0 × 10^10 bacteria/ml, CF512 worms, no FuDR, read-out: Lifespan assay on plates
[15] = Assay 5(ac), 1.0 × 10^11 bacteria/ml, CF512 worms, no FuDR, read-out: Lifespan assay on plates

Row | SMILES | CdCl2-resistant [1] | H2O2- & CdCl2-resistant [1] | fold induction at 10 µM [1, 5] | fold induction at 10 µM [1, 6] | CdCl2-resistant ([1]; WI-38 cells, 10 μM) | H2O2- & CdCl2-resistant [1, 7] | Assay 4: H2O2- & Cd-resistant [1] | Assay 2: Cadmium-resistant [1] | A = Cadmium resistant [1, 8] | A = Cadmium resistant ([1]; summary score) | C = H2O2- & Cd-resistant ([1]; summary score) | I = FOXO3-dependency for H2O2-resistance ([2]; score) | I = FOXO3-dependency for H2O2-resistance ([2]; summary score) | ILS at 60 µM [3, 9] | ILS at 60 µM [3, 10] | ILS at 66 µM [3, 12] | ILS at 66 µM [3, 13] | ILS at 66 µM [3, 14] | O = Life span- extending scores in worms [3] | M = Lifespan-extending scores in worms [3] | also measured
1 | O=C(Nc1cccc(Cl)c1)c1ccc([N+](=O)[O-])o1 [Gr-1D] | YES | YES | 3.14 | 3.84 | YES | YES | YES | YES | 1 | 1 | 1 | 0 | 0 | 18.2% | -0.5% | 18.2% | -0.5% | 10.5% | 1 (1 for lifespan extension observed in 2 trials) | 1 (1 for lifespan extension observed in 2 trials) | ILS at 60 µM [3, 11]: 10.5%; PI cell-death imaging without H2O2 (indicating potential toxicity) [4]: YES; Percentage of propidium iodide-positive (dead) cells under normal conditions (qualitative) [4]: increased the percentage; PI-positive dead cells under normal conditions [4]: 4.2±1.4%; Percentage of propidium iodide-positive dead cells (no H2O2 stress treatment), at 10 uM [4]: 4.16% ± 1.39%,
2 | O=C(Nc1cccc(C(F)(F)F)c1)c1ccc([N+](=O)[O-])o1 [Gr-1E] | YES | YES | 6.69 | 8.82 | YES | YES | YES | YES | 1 | 1 | 1 | 0 | 0 | 17.4% | 6.3% | 17.4% | 6.3% | 13.8% | 2 (2 for observed in more than 2 trials) | 2 (2 for observed in more than 2 trials) | ILS at 60 µM [3, 11]: 13.8%; Extension of C. elegans' lifespan (qualitative) [3]: could extend animal's lifespan; Percentage of propidium iodide-positive dead cells (no H2O2 stress treatment), at 10 uM [4]: 0.71% ± 0.28%,
3 | Cc1ccc(NC(=O)c2ccc([N+](=O)[O-])o2)cc1C [Gr-1F] | YES | YES | 6.65 | 4.8 | YES | YES | YES | YES | 1 | 1 | 1 | 0 | 0 | 22.3% | 0.6% | 22.3% | 0.6% | 11.3% | 1 (1 for lifespan extension observed in 2 trials) | 1 (1 for lifespan extension observed in 2 trials) | FOXO3-dependency for H2O2-resistance, at 10 uM (experiment 3) - with & without H2O2 ([2]; 10 uM, experiment 3, with & without H2O2): YES; FOXO3-dependency for H2O2-resistance (experiment 3) ([2]; 10 uM, with & without H2O2, FOXO3 knockdown in WI-38 cells, YES = resistance reduced by at least 50%, partial = 25% to 50%): YES; ILS at 60 µM [3, 11]: 11.3%; PI cell-death imaging without H2O2 (indicating potential toxicity) [4]: YES; Percentage of propidium iodide-positive (dead) cells under normal conditions (qualitative) [4]: increased the percentage; PI-positive dead cells under normal conditions [4]: 3.3±0.8%; Percentage of propidium iodide-positive dead cells (no H2O2 stress treatment), at 10 uM [4]: 3.27% ± 0.82%,
4 | O=C(Nc1ccc(Cl)c(Cl)c1)c1ccc([N+](=O)[O-])o1 [Gr-1G] | YES | YES | 3.81 | 7.21 | YES | YES | YES | YES | 1 | 1 | 1 | 0 | 0 | 1.3% | 10.2% | 1.3% | 10.2% | 24.7% | 1 (1 for lifespan extension observed in 2 trials) | 1 (1 for lifespan extension observed in 2 trials) | ILS at 60 µM ([3]; on plate, CF512 temperature-sensitive sterile animals, without FuDR, 1.0 × 10^11 bacteria/ml, read-out: relative change of mean lifespan vs control, Trial 4): 5.8%; ILS at 60 µM [3, 11]: 24.7%; ILS at 66 µM [3, 15]: 5.8%; PI cell-death imaging without H2O2 (indicating potential toxicity) [4]: YES; PI-positive dead cells under normal conditions [4]: 7.1%±1.1%
5 | O=[N+]([O-])c1ccccc1S(=O)(=O)Nc1cccc2cccnc12 [Gr-3A] | YES | YES | 1.93 | 1.64 | YES | YES | YES | YES | 1 | 1 | 1 | 0 | 0 |  |  | 33.4% | 14.2% | 16.3% | 2 (2 for observed in more than 2 trials) | 2 (2 for observed in more than 2 trials) | ILS at 66 µM [3, 15]: 8.4%; Extension of C. elegans' lifespan (qualitative) [3]: could extend animal's lifespan; Percentage of propidium iodide-positive dead cells (no H2O2 stress treatment), at 10 uM [4]: 0.54% ± 0.16%,
6 | Cc1ccc(S(=O)(=O)Nc2cccc3cccnc23)cc1 [Gr-3B] |  |  | 2.1 | 2.88 |  |  |  |  | 0 | 0 | 0 | 0 | 0 | 13.7% | 12.5% | 13.7% | 12.5% | 8.1% | 2 (2 for observed in more than 2 trials) | 2 (2 for observed in more than 2 trials) | ILS at 60 µM [3, 11]: 8.1%; Extension of C. elegans' lifespan (qualitative) [3]: could extend animal's lifespan; Percentage of propidium iodide-positive dead cells (no H2O2 stress treatment), at 10 uM [4]: 0.47% ± 0.20%,
